In ChEMBL document CHEMBL1909046, “DrugMatrix in vitro pharmacology data”:
Where a SMILES comes first, the peptide text is derived from it. Bridges are numbered along the chain shown (N, C = ends). [ ]: non-standard residue; d: D form. The star is where a group is joined. Ileψ(thiazoline)Cys = CC[C@H](C)[C@H](N)C1=N[C@H](C(=O)*)CS1; dOrn = NCCC[C@@H](N)C(=O)O

Key:
[1] = target: Tyrosine-protein kinase Lck (Homo sapiens, UniProt P06239); test: DRUGMATRIX: Protein Tyrosine Kinase, LCK enzyme inhibition (substrate: Poly(Glu:Tyr)); format: cell-based, Insect cells; details: Not Active = under 50% inhibition at 10 µM
Chain of Tyrosine-protein kinase Lck (P06239 whole entry): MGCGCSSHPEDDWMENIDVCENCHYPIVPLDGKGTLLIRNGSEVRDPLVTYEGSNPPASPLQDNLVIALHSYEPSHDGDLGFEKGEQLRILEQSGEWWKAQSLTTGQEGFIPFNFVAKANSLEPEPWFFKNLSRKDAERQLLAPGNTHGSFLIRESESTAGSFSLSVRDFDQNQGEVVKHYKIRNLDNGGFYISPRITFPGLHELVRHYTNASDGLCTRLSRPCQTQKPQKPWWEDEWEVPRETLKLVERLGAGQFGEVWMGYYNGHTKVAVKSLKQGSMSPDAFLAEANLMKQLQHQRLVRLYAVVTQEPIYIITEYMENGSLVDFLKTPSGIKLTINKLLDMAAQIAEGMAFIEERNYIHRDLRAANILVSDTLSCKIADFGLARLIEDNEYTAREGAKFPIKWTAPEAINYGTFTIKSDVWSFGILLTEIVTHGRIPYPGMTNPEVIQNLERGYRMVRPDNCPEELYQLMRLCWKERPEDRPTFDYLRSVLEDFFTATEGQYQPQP

B2 bradykinin receptor = target: T1, B2 bradykinin receptor (Homo sapiens, UniProt P30411); format: cell membranes, Membrane; details: chem-1; also: in other assays of this panel Not Active means under 50% inhibition at 10 µM
T1 sequence (P30411 whole entry): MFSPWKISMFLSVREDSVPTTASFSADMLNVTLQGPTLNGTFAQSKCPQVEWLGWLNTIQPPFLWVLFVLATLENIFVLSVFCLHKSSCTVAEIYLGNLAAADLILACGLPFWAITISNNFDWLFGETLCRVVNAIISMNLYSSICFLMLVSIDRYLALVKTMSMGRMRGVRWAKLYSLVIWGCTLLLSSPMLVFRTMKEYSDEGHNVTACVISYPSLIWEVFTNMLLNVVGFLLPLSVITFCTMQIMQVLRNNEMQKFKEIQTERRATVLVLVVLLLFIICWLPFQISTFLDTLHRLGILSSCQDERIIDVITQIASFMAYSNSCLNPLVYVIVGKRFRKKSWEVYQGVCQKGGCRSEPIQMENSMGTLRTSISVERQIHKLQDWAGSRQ

[2] = DRUGMATRIX: GABAA, Chloride Channel, TBOB radioligand binding (ligand: [3H] TBOB); format: cell membranes, Rattus norvegicus, Wistar, Cerebral cortex, Membrane; details: Not Active = under 50% inhibition at 10 µM
[3] = target: Prostaglandin G/H synthase 1 (Homo sapiens, UniProt P23219); test: biochemical; format: tissue-based, Platelet; details: platelet;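 also: inhibition of COX-1 enzyme activity, with arachidonic acid supplied as substrate; in other assays of this panel Not Active means under 50% inhibition at 10 µM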
Chain of Prostaglandin G/H synthase 1 (P23219 whole entry): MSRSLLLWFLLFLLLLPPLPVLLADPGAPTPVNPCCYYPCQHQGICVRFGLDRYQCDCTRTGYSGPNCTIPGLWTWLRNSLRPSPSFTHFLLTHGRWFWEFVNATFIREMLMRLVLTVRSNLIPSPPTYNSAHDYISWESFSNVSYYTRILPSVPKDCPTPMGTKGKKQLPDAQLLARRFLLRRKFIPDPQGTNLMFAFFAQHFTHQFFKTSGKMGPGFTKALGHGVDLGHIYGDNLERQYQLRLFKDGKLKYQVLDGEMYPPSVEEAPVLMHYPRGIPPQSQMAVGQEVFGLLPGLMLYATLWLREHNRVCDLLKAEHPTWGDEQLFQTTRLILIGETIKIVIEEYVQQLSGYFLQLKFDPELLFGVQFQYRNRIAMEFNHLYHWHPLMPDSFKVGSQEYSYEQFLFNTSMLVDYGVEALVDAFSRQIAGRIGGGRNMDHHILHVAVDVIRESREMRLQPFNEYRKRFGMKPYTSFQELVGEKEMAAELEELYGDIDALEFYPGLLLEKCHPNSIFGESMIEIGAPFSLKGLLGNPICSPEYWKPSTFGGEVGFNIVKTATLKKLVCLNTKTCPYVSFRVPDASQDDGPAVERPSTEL

[4] = DRUGMATRIX: Serotonin (5-Hydroxytryptamine) 5-HT3 radioligand binding (ligand: [3H] GR-65630); format: cell membranes, Membrane; details: hek293, Not Active = under 50% inhibition at 10 µM
[5] = DRUGMATRIX: Phorbol Ester radioligand binding (ligand: [3H] PDBu); format: cell membranes, Mus musculus, ICR, Brain, Membrane; details: Not Active = under 50% inhibition at 10 µM
Caspase-1 = target: T2, Caspase-1 (Homo sapiens, UniProt P29466); design: species or system Escherichia coli;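 also: Caspase-1 enzyme inhibition assay with a peptide substrate; in other assays of this panel Not Active means under 50% inhibition at 10 µM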
T2 sequence (P29466 whole entry): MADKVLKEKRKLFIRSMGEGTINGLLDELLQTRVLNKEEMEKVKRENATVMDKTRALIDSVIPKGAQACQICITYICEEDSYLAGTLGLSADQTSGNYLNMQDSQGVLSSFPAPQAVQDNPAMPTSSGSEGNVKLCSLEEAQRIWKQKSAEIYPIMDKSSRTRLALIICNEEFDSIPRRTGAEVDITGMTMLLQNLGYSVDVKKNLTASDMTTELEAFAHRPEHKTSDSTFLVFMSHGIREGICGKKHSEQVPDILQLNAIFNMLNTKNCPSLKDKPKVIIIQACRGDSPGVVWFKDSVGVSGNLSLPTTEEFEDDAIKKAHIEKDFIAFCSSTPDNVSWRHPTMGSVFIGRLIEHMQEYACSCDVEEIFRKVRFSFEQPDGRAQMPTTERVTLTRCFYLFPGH

[6] = target: T3, Amine oxidase [flavin-containing] A (Homo sapiens, UniProt P21397); test: DRUGMATRIX: Monoamine Oxidase MAO-A enzyme inhibition (substrate: Kynuramine); design: species or system BTI-TN-5B1-4; details: bti-tn-5b1-4; Not Active = under 50% inhibition at 10 µM
T3 sequence (P21397 whole entry): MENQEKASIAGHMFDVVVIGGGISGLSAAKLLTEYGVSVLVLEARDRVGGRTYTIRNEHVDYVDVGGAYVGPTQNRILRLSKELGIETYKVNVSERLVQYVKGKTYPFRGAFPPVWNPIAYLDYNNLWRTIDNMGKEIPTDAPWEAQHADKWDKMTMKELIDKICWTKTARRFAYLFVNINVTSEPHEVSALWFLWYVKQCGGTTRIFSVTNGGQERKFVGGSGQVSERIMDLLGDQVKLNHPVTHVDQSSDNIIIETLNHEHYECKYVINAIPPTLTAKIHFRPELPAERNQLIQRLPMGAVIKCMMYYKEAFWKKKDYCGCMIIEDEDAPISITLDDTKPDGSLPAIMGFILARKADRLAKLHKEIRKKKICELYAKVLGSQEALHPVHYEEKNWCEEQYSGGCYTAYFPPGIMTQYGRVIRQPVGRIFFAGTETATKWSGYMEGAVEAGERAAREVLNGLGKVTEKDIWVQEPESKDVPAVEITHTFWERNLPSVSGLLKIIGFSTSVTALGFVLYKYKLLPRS

[7] = target: T4, Alpha-1A adrenergic receptor (Rattus norvegicus, UniProt P43140); test: DRUGMATRIX: Alpha-1A adrenergic receptor radioligand binding (ligand: prazosin); format: cell membranes, Wistar, Submaxillary gland, Membrane; details: Not Active = under 50% inhibition at 10 µM
T4 sequence (P43140 whole entry): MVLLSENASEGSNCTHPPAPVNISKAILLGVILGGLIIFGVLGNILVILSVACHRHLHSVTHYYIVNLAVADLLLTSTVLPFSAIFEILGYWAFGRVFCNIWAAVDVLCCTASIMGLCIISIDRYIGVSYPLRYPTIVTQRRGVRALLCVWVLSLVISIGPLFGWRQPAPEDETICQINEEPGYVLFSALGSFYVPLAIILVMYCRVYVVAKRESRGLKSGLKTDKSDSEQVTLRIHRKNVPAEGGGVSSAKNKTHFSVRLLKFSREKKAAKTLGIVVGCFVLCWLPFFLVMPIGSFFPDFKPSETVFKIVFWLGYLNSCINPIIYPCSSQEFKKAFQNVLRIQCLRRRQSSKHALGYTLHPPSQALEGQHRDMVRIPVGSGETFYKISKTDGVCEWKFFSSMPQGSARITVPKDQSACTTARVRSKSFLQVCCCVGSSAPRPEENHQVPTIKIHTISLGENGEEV

[8] = target: T5, Neuropeptide Y receptor type 2 (Homo sapiens, UniProt P49146); format: cell membranes, Membrane; details: kan-ts; also: in other assays of this panel Not Active means under 50% inhibition at 10 µM
T5 sequence (P49146 whole entry): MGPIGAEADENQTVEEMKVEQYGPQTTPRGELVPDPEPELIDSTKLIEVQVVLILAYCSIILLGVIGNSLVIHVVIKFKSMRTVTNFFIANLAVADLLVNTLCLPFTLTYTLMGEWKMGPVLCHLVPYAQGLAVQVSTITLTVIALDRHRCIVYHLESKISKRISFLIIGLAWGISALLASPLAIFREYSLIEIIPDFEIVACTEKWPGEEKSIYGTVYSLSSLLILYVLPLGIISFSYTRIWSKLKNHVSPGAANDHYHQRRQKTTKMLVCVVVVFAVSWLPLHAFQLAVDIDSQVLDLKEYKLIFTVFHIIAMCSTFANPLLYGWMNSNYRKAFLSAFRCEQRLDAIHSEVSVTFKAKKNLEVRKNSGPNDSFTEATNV

[9] = target: 5-hydroxytryptamine receptor 2B (Homo sapiens, UniProt P41595); format: cell membranes, CHO-K1, Membrane; also: in other assays of this panel Not Active means under 50% inhibition at 10 µM
Chain of 5-hydroxytryptamine receptor 2B (P41595 whole entry): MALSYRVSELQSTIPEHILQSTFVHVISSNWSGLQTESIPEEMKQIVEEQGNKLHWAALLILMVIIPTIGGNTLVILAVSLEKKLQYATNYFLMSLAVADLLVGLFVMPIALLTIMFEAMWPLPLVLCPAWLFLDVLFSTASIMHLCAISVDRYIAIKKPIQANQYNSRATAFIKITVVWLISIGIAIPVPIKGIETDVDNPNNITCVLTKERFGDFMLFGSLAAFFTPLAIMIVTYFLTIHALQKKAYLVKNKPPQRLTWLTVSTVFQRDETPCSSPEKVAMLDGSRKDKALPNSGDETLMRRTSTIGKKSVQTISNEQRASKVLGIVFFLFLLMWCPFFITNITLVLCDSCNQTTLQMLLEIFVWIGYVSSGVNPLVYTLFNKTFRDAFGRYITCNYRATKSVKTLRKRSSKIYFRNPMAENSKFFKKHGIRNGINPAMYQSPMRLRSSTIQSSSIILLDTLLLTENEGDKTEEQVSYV

[10] = target: Mitogen-activated protein kinase 14 (Homo sapiens, UniProt Q16539); design: species or system Escherichia coli
Chain of Mitogen-activated protein kinase 14 (Q16539 whole entry): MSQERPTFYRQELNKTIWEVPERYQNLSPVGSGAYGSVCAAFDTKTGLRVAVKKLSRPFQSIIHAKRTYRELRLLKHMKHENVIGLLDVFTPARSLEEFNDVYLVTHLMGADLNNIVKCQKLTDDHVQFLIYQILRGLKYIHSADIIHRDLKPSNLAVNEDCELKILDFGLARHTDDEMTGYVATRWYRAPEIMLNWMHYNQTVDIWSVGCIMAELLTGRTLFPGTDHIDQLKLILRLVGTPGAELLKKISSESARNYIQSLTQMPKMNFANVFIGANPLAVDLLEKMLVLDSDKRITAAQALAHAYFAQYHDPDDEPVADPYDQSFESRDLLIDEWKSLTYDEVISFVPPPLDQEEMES

Cytochrome P450 2C19 = Cytochrome P450 2C19 (Homo sapiens, UniProt P33261); details: bti-tn-5b1-4; also: in other assays of this panel Not Active means under 50% inhibition at 10 µM
Chain of Cytochrome P450 2C19 (P33261 whole entry): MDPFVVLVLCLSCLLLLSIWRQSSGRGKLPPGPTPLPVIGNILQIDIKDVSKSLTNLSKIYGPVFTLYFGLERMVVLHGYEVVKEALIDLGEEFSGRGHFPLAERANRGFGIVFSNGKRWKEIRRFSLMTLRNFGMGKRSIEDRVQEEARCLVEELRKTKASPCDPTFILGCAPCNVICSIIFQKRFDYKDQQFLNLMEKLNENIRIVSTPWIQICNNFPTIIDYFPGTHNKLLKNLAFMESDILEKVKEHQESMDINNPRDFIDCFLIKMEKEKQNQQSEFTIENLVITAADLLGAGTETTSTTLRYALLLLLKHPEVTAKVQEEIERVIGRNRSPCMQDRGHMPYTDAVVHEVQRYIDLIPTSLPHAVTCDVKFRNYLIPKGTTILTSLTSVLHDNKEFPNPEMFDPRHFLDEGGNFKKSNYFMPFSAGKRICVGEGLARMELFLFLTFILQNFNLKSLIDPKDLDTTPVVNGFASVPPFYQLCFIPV

Row | Compound | IC50 ([1]; insect cells) | IC50 (B2 bradykinin receptor) | IC50 [2] | Ki [2] | IC50 [3] | IC50 [4] | Ki [4] | IC50 [5] | Ki [5] | IC50 (Caspase-1) | IC50 [6] | IC50 [7] | IC50 [8] | IC50 ([9]; cho-k1) | IC50 [10] | IC50 (Cytochrome P450 2C19) | Ki (Cytochrome P450 2C19) | further results
1 | CC(C)NC[C@H](O)COc1cccc2[nH]ccc12 | Not Active | Not Active | Not Active | Not Active | Not Active | Not Active | Not Active | Not Active | Not Active | Not Active | Not Active | Not Active | Not Active | Not Active | Not Active | – | – | –
2 | Cc1[nH]cnc1CN1CCc2c(c3ccccc3n2C)C1=O [ALOSETRON] | Not Active | Not Active | Not Active | Not Active | Not Active | – | – | Not Active | Not Active | Not Active | Not Active | Not Active | Not Active | – | Not Active | Not Active | Not Active | IC50 ([4]; read-out: IC50): 0.00116 µM; Ki ([4]; read-out: Ki): 0.000262 µM
3 | Cn1cnc([N+](=O)[O-])c1Sc1ncnc2nc[nH]c12 [AZATHIOPRINE] | Not Active | Not Active | Not Active | Not Active | Not Active | Not Active | Not Active | Not Active | Not Active | Not Active | Not Active | Not Active | Not Active | Not Active | Not Active | – | – | –
4 | CC[C@H](C)[C@H](N)C1=N[C@H](C(=O)N[C@@H](CC(C)C)C(=O)N[C@H](CCC(=O)O)C(=O)N[C@H](C(=O)N[C@H]2CCCCNC(=O)[C@H](CC(N)=O)NC(=O)[C@@H](CC(=O)O)NC(=O)[C@H](Cc3cnc[nH]3)NC(=O)[C@@H](Cc3ccccc3)NC(=O)[C@H]([C@@H](C)CC)NC(=O)[C@@H](CCCN)NC2=O)[C@@H](C)CC)CS1 [BACITRACIN] ({Ileψ(thiazoline)Cys}-L[dE]IK[dOrn]I[dF]H[dD]N; lactam 4-C) | – | Not Active | Not Active | Not Active | Not Active | Not Active | Not Active | Not Active | Not Active | Not Active | Not Active | Not Active | Not Active | Not Active | Not Active | Not Active | Not Active | –
5 | Oc1c(Cl)cc(Cl)cc1Sc1cc(Cl)cc(Cl)c1O [BITHIONOL] | – | Not Active | Not Active | Not Active | Not Active | Not Active | Not Active | Not Active | Not Active | Not Active | Not Active | Not Active | Not Active | – | – | Not Active | Not Active | IC50 ([1]; read-out: IC50): 2.26 µM; IC50 ([10]; read-out: IC50): 0.318 µM
6 | Cc1ccccc1N1CCN(CCc2nnc3n2CCCC3)CC1 [DAPIPRAZOLE] | Not Active | Not Active | Not Active | Not Active | Not Active | Not Active | Not Active | Not Active | Not Active | Not Active | Not Active | – | Not Active | – | Not Active | Not Active | Not Active | IC50 ([9]; read-out: IC50): 1.06 µM; Ki ([9]; read-out: Ki): 0.672 µM
7 | CCc1cccc2c3c([nH]c12)C(CC)(CC(=O)O)OCC3 (configuration not stated) [ETODOLAC] | Not Active | Not Active | Not Active | Not Active | – | Not Active | Not Active | Not Active | Not Active | Not Active | Not Active | Not Active | Not Active | Not Active | Not Active | Not Active | Not Active | –
8 | CN1C(C(=O)Nc2ccccn2)=C(O)c2ccccc2S1(=O)=O [PIROXICAM] | Not Active | Not Active | Not Active | Not Active | – | Not Active | Not Active | Not Active | Not Active | Not Active | Not Active | Not Active | Not Active | Not Active | Not Active | Not Active | Not Active | –
